T/C data for 13 compounds are collected here from PubChem BioAssay AID256 (DTP/NCI, 2004).

Where “and” joins values, the source holds several entries; their conditions need not be identical. Identical values can stand only once. Toxic doses and inconclusive results are not listed.

This test concerns CD2F1 mice, L1210 leukemia ip, survival T/C. As to the kind of experiment: NCI In Vivo Anticancer Drug Screen. Data for tumor model L1210 Leukemia (intraperitoneal) in CD2F1 (CDF1) mice. The settings on record: higher = longer survival. The method, boiled down: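 Ratio T/C, where T is the treated-group value and C the vehicle-dosed control value, from mice implanted with a transplantable tumor.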

Where [1] appears, read: endpoint: mean survival time, dose: 20.0 mg/kg/injection, schedule: Q01DX009 (ip), vehicle: saline with Tween-80.
Setting [2] is: endpoint: mean survival time, dose: 100.0 mg/kg/injection, schedule: Q01DX001 (ip), vehicle: saline with Tween-80.
Where [3] appears, read: endpoint: mean survival time, dose: 200.0 mg/kg/injection, schedule: Q01DX001 (ip), vehicle: saline with Tween-80.
[4] abbreviates: endpoint: mean survival time, dose: 100.0 mg/kg/injection, schedule: Q01DX009 (ip), vehicle: saline with Tween-80.
Where [5] appears, read: endpoint: mean survival time, dose: 200.0 mg/kg/injection, schedule: Q01DX009 (ip), vehicle: saline with Tween-80.
[6] abbreviates: endpoint: mean survival time, dose: 400.0 mg/kg/injection, schedule: Q01DX001 (ip), vehicle: saline with Tween-80.
[7] abbreviates: endpoint: mean survival time, dose: 100.0 mg/kg/injection, schedule: Q04DX003 (ip), vehicle: saline with Tween-80.
Where [8] appears, read: endpoint: mean survival time, dose: 200.0 mg/kg/injection, schedule: Q04DX003 (ip), vehicle: saline with Tween-80.
[9] abbreviates: endpoint: mean survival time, dose: 400.0 mg/kg/injection, schedule: Q04DX003 (ip), vehicle: saline with Tween-80.

As to `CCCCCCCCCCCCCCCC(=O)OCC1OC(n2ccc(N)nc2=O)C(O)C1O` (stereo unspecified), the T/C reads like this: (endpoint: mean survival time, dose: 6.25 mg/kg/injection, schedule: Q01DX008 (ip), vehicle: saline) 320 % of control; (endpoint: mean survival time, dose: 12.5 mg/kg/injection, schedule: Q01DX008 (ip), vehicle: saline) 377 % of control; (endpoint: mean survival time, dose: 16.0 mg/kg/injection, schedule: Q01DX008 (oral), vehicle: saline) 117 % of control; (endpoint: mean survival time, dose: 16.0 mg/kg/injection, schedule: Q03HX024 (oral), vehicle: saline with Tween-80) 202 % of control; under setting [1], 479 % of control; (endpoint: mean survival time, dose: 25.0 mg/kg/injection, schedule: Q01DX001 (ip), vehicle: saline with Tween-80) 150 % of control. The T/C was 491 % of control (endpoint: mean survival time, dose: 25.0 mg/kg/injection, schedule: Q01DX008 (ip), vehicle: saline); 484 % of control (endpoint: mean survival time, dose: 25.0 mg/kg/injection, schedule: Q01DX009 (ip), vehicle: saline with Tween-80); 184 % of control (endpoint: mean survival time, dose: 30.0 mg/kg/injection, schedule: Q01DX009 (ip), vehicle: saline with Tween-80); 235 % of control (endpoint: mean survival time, dose: 32.0 mg/kg/injection, schedule: Q03HX024 (oral), vehicle: saline with Tween-80); 192 % of control (endpoint: mean survival time, dose: 50.0 mg/kg/injection, schedule: Q01DX001 (ip), vehicle: saline with Tween-80); 285 % of control (endpoint: mean survival time, dose: 50.0 mg/kg/injection, schedule: Q01DX008 (ip), vehicle: saline). In addition, the T/C is, setting by setting: (endpoint: mean survival time, dose: 64.0 mg/kg/injection, schedule: Q03HX024 (oral), vehicle: saline with Tween-80) 265 % of control; under setting [2], 312 % of control; (endpoint: mean survival time, dose: 125.0 mg/kg/injection, schedule: Q01DX001 (ip), vehicle: saline with Tween-80) 580 % of control; (endpoint: mean survival time, dose: 128.0 mg/kg/injection, schedule: Q01DX001 (oral), vehicle: saline with Tween-80) 102 % of control; (endpoint: mean survival time, dose: 128.0 mg/kg/injection, schedule: Q01DX008 (oral), vehicle: saline) 151 % of control; (endpoint: mean survival time, dose: 128.0 mg/kg/injection, schedule: Q03HX024 (oral), vehicle: saline with Tween-80) 295 % of control. In addition, the T/C is, setting by setting: (endpoint: mean survival time, dose: 128.0 mg/kg/injection, schedule: Q04DX003 (oral), vehicle: saline) 119 % of control; (endpoint: mean survival time, dose: 150.0 mg/kg/injection, schedule: Q01DX001 (ip), vehicle: saline with Tween-80) 608 % of control; under setting [3], 612 % of control; (endpoint: mean survival time, dose: 250.0 mg/kg/injection, schedule: Q01DX001 (ip), vehicle: saline with Tween-80) 214 % of control; (endpoint: mean survival time, dose: 256.0 mg/kg/injection, schedule: Q01DX001 (oral), vehicle: saline with Tween-80) 101 % of control; (endpoint: mean survival time, dose: 300.0 mg/kg/injection, schedule: Q01DX001 (ip), vehicle: saline with Tween-80) 83 % of control. For the same compound, the T/C was 108 % of control (endpoint: mean survival time, dose: 512.0 mg/kg/injection, schedule: Q01DX001 (oral), vehicle: saline with Tween-80); 169 % of control (endpoint: mean survival time, dose: 512.0 mg/kg/injection, schedule: Q01DX009 (oral), vehicle: saline); 109 % of control (endpoint: mean survival time, dose: 1024.0 mg/kg/injection, schedule: Q01DX001 (oral), vehicle: saline with Tween-80); 177 % of control (endpoint: mean survival time, dose: 1024.0 mg/kg/injection, schedule: Q01DX009 (oral), vehicle: saline).
Consider `[Na+]`, for which the T/C (endpoint: median survival time, dose: 25.0 mg/kg/injection, schedule: Q01DX009 (ip), vehicle: water) was 105 % of control; the T/C (endpoint: median survival time, dose: 50.0 mg/kg/injection, schedule: Q01DX009 (ip), vehicle: water) is 102 % of control; the T/C (endpoint: median survival time, dose: 100.0 mg/kg/injection, schedule: Q01DX009 (ip), vehicle: water) was 93 % of control; the T/C (endpoint: median survival time, dose: 200.0 mg/kg/injection, schedule: Q01DX009 (ip), vehicle: water) was 100 % of control; the T/C (endpoint: median survival time, dose: 400.0 mg/kg/injection, schedule: Q01DX009 (ip), vehicle: water) was 105 % of control.
Consider `C[CH2][Pb]([CH2]C)([CH2]C)[O]C(=O)COc1ccccc1`, for which the T/C reads like this: (endpoint: mean survival time, dose: 1.5 mg/kg/injection, schedule: Q04DX003 (ip), vehicle: Klucel (hydroxypropylcellulose) (HPC)) 104 % of control; (endpoint: mean survival time, dose: 3.0 mg/kg/injection, schedule: Q04DX003 (ip), vehicle: Klucel (hydroxypropylcellulose) (HPC)) 97 % of control; (endpoint: mean survival time, dose: 6.0 mg/kg/injection, schedule: Q04DX003 (ip), vehicle: Klucel (hydroxypropylcellulose) (HPC)) 100 % of control; (endpoint: mean survival time, dose: 12.0 mg/kg/injection, schedule: Q04DX003 (ip), vehicle: Klucel (hydroxypropylcellulose) (HPC)) 104 % of control; (endpoint: mean survival time, dose: 24.0 mg/kg/injection, schedule: Q04DX003 (ip), vehicle: Klucel (hydroxypropylcellulose) (HPC)) 86 % of control.
Consider `O=C1OC(=O)C2C3CCC(O3)C12` (stereo unspecified), for which the T/C runs as follows: (endpoint: mean survival time, dose: 1.56 mg/kg/injection, schedule: Q01DX009 (ip), vehicle: saline) 98 % of control; (endpoint: mean survival time, dose: 3.12 mg/kg/injection, schedule: Q01DX009 (ip), vehicle: saline) 101 % of control; (endpoint: mean survival time, dose: 5.0 mg/kg/injection, schedule: Q01DX009 (ip), vehicle: saline with Tween-80) 103 % of control; (endpoint: mean survival time, dose: 10.0 mg/kg/injection, schedule: Q01DX009 (ip), vehicle: saline with Tween-80) 100 % of control; under setting [1], 98 % of control.
`Clc1ccc(CC[PH+]2CC=CC2)cc1.Clc1ccc(CC[PH+]2CC=CC2)cc1.[Cl][Ni][Cl]`: the T/C is, setting by setting: (endpoint: mean survival time, dose: 12.5 mg/kg/injection, schedule: Q01DX009 (ip), vehicle: DMSO) 101 % of control; (endpoint: mean survival time, dose: 25.0 mg/kg/injection, schedule: Q01DX009 (ip), vehicle: DMSO) 101 % of control; (endpoint: mean survival time, dose: 25.0 mg/kg/injection, schedule: Q04DX002 (ip), vehicle: saline with Tween-80) 91 % of control; (endpoint: mean survival time, dose: 50.0 mg/kg/injection, schedule: Q04DX002 (ip), vehicle: saline with Tween-80) 95 % of control.
For `CCCCCCCCCCCCCCCCC(Br)C(=O)c1ccccc1` (stereo unspecified), the T/C (endpoint: mean survival time, dose: 100.0 mg/kg/injection, schedule: Q04DX002 (ip), vehicle: saline with Tween-80) was 102 % of control; the T/C (endpoint: mean survival time, dose: 200.0 mg/kg/injection, schedule: Q04DX002 (ip), vehicle: saline with Tween-80) was 95 % of control; the T/C (endpoint: mean survival time, dose: 400.0 mg/kg/injection, schedule: Q04DX002 (ip), vehicle: saline with Tween-80) was 111 % of control.
Turning to `CNC(=O)Nc1nccs1`, the T/C is 105 % of control (endpoint: mean survival time, dose: 50.0 mg/kg/injection, schedule: Q01DX009 (ip), vehicle: saline with Tween-80); 106 % of control under setting [4]; 97 % of control under setting [5].
Turning to `BrC1(Br)C2COCOCC21` (stereo unspecified), the T/C was 94 % of control under setting [2], 94 % of control under setting [3] and 94 % of control under setting [6].
For `Cc1cccc(CCF)c1`, the T/C was 110 % of control under setting [2], 107 % of control under setting [3] and 98 % of control under setting [6].
With `Cc1ccc(S(=O)(=O)OCCOCCOCCOS(=O)(=O)c2ccc(C)cc2)cc1`, the T/C under setting [7] is 101 % of control, the T/C under setting [8] is 101 % of control and the T/C under setting [9] was 101 % of control.
As to `CCC1(O)C(=O)OCc2c1cc1n(c2=O)Cc2cc3ccc(O)cc3nc2-1` (stereo unspecified), the T/C reads like this: (endpoint: median survival time, dose: 3.75 mg/kg/injection, schedule: Q04DX002 (ip), vehicle: Klucel (hydroxypropylcellulose) (HPC)) 121 % of control; (endpoint: median survival time, dose: 7.5 mg/kg/injection, schedule: Q04DX002 (ip), vehicle: Klucel (hydroxypropylcellulose) (HPC)) 272 % of control; (endpoint: median survival time, dose: 15.0 mg/kg/injection, schedule: Q04DX002 (ip), vehicle: Klucel (hydroxypropylcellulose) (HPC)) 190 % of control; (endpoint: median survival time, dose: 30.0 mg/kg/injection, schedule: Q04DX002 (ip), vehicle: Klucel (hydroxypropylcellulose) (HPC)) 152 % of control; (endpoint: median survival time, dose: 60.0 mg/kg/injection, schedule: Q04DX002 (ip), vehicle: Klucel (hydroxypropylcellulose) (HPC)) 154 % of control and 357 % of control.
Take `CCCCOC(=O)CCCCC(=O)OCCCC`: the T/C runs as follows: under setting [4], 96 % of control; under setting [7], 97 % of control; under setting [5], 105 % of control; under setting [8], 98 % of control; (endpoint: mean survival time, dose: 400.0 mg/kg/injection, schedule: Q01DX009 (ip), vehicle: saline with Tween-80) 110 % of control; under setting [9], 97 % of control.
In the case of `CC(C)(C)/C=N/Nc1ccc([N+](=O)[O-])cc1[N+](=O)[O-]`, the T/C runs as follows: (endpoint: mean survival time, dose: 100.0 mg/kg/injection, schedule: Q04DX003 (ip), vehicle: acetone) 97 % of control; (endpoint: mean survival time, dose: 200.0 mg/kg/injection, schedule: Q04DX003 (ip), vehicle: acetone) 101 % of control; (endpoint: mean survival time, dose: 400.0 mg/kg/injection, schedule: Q04DX003 (ip), vehicle: acetone) 97 % of control.
